Test results published in patent US20090143285A1, “TARGET PROTEIN AND TARGET GENE FOR DRUG DISCOVERY AND SCREENING METHOD” (REVERSE PROTEOMICS RESEARCH INSTITUTE CO., LTD., priority 2005, published 2009).
Residue numbers refer to the chain shown, from its start. “Also recorded” adds a separate entry of the source. Values belong to the molecule of their own block, whether it stands above or below them.

Key:
FLJ38897-derived protein = biological target: T1, FLJ38897-derived protein (Homo sapiens, UniProt P57764); experiment: SEC/MS interaction analysis, FLJ38897-derived protein (GSDMDC1); format: binding; conditions: spin column method; mixture with protein vs buffer solution alone; data not shown
T1 construct: His-tag (N); made in house; host or cells: Escherichia coli BL21star(DE3)pLysS
T1 sequence (P57764 265-484): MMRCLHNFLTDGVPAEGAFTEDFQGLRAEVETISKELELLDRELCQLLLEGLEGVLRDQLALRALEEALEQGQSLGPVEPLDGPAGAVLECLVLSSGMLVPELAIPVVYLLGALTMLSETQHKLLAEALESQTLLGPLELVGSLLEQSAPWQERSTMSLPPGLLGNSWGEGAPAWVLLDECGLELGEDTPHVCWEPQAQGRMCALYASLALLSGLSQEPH
Description: (§1) To analyze the interactions between commonly used drugs and proteins expressed from human full-length cDNA clones while keeping both the proteins and the compounds in non-modified, non-immobilized state, size exclusion chromatography (SEC) and mass analysis were used in combination. The specific procedures are shown below.
(§2) The compound-protein mixture prepared in step 1 was subjected to chromatography using an SEC column, the compound and the protein were separated by SEC, and the compound that interacted with the bound compound or protein contained in the protein fraction was analyzed using a mass analyzer.
(§3) Protein concentrations were measured using BCA Protein Assay (PIERCE), in consideration of the purity calculated by SDS-PAGE.
(§4) Mass analysis was performed using LCQ DECA XP (Thermoelectron) or Q-TOF micro (Micromass), equipped with an ESI probe. The LC pump used was Agilent 1100 (Yokogawa Analytical Systems), and the autosampler used was HTC-PAL (CTC Analytics) equipped with a cooling stacker. The SEC column used was a micro-LC column or a 384-well spin column. […]
(§5) In the 384-well spin column method, Unifilter 100 (Whatman), packed with 10 μL (dry volume) of Bio-Gel P6 (BIO-RAD) and swollen with milliQ water, was used as the SEC column. […] The SEC spin column was mounted on an acetonitrile-aliquoted 384-well U-bottom plate and centrifuged; the SEC spin column filtrate, which is a protein fraction, was recovered in 50% acetonitrile. The protein precipitate produced by the acetonitrile was removed via centrifugation and filtration for deproteinization; the resulting filtrate was concentrated by centrifugal concentration and re-dissolved in 10 μL of 50% methanol to obtain a mass analysis sample. The mobile phase supplied to the mass analyzer was 0.1% formic acid/50% methanol solution in the positive ion mode, and 0.1% ammonia/50% methanol solution in the negative ion mode; these mobile phases were used at a flow rate of 40 μL/min. 2-μL of mass analysis samples were injected using an autosampler at 2-minute intervals; the mass spectral intensity of the compound was measured to retrieve the spectral intensity of the pharmaceutical compound contained in the SEC spin column filtrate (protein fraction eluted from SEC).

FLJ41991-derived protein = biological target: T2, FLJ41991-derived protein (Homo sapiens, UniProt P57764, E293G); experiment: SEC/MS interaction analysis, FLJ41991-derived protein (GSDMDC1); format: binding
T2 construct: His-tag (N); made in house; host or cells: Escherichia coli BL21star(DE3)pLysS (pDEST17)
T2 sequence (P57764 265-484 E293G): T1 sequence (P57764 265-484) with E29G
Description: as §1, §2, §3, §4, §5

[1] = tested on: FLJXXXXX-derived proteins; experiment: SEC/MS spin column interaction analysis of FLJXXXXX-derived proteins and various compounds (Tables 30-1 to 30-4); format: binding, human; conditions: SEC spin column filtrate, spectral intensity increased with doses of compound and protein
FLJ40298-derived protein = FLJ40298-derived protein (Homo sapiens, UniProt Q8N5S3, P254L/R275T); experiment: SEC/MS interaction analysis, FLJ40298-derived protein (hypothetical protein FLJ40298); format: binding
Description: as §1, §2, §3, §4, §5

FLJ12857-derived protein = biological target: T3, FLJ12857-derived protein (Homo sapiens, UniProt O75781, T107A); experiment: SEC/MS interaction analysis, FLJ12857-derived protein (Paralemmin; PALM); format: binding
T3 construct: His-tag (N); made in house; host or cells: Escherichia coli BL21star(DE3)pLysS
T3 sequence (O75781 74-343 isoform O75781-2 T107A): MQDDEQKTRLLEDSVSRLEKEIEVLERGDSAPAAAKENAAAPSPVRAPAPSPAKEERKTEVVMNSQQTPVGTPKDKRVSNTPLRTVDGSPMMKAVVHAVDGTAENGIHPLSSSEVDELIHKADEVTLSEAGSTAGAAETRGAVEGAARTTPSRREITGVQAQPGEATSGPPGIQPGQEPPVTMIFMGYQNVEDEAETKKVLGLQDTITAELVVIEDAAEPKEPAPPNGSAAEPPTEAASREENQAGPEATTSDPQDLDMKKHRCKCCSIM
Description: as §1, §2, §3, §4, §5

[2] = compound 12.5 μM, protein 10 μM
[3] = compound 12.5 μM, protein 25 μM
[4] = compound 62.5 μM, protein 10 μM
[5] = compound 62.5 μM, protein 25 μM
[6] = spin column method, doses of both compound and protein varied

Sequence of FLJ40298-derived protein (Q8N5S3 122-287 P254L/R275T): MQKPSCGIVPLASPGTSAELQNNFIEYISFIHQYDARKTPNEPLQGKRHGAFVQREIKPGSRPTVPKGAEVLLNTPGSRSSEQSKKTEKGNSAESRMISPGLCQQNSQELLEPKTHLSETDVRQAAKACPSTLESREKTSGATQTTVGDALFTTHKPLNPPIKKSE

- interaction judged from mass spectrum peak intensity of the compound in the spin column filtrate (FLJ38897-derived protein): there was an interaction
- spectrum intensity of the compound in the SEC spin column filtrate (FLJ41991-derived protein; compound 12.5 μM, protein 0 μM): 24899
- spectrum intensity of the compound in the SEC spin column filtrate (FLJ41991-derived protein; compound 12.5 μM, protein 5 μM): 60014
- spectrum intensity of the compound in the SEC spin column filtrate (FLJ41991-derived protein; [2]): 160855
- spectrum intensity of the compound in the SEC spin column filtrate (FLJ41991-derived protein; [3]): 908771
- spectrum intensity of the compound in the SEC spin column filtrate (FLJ41991-derived protein; compound 25 μM, protein 0 μM): 19274
- spectrum intensity of the compound in the SEC spin column filtrate (FLJ41991-derived protein; compound 25 μM, protein 5 μM): 89714
- spectrum intensity of the compound in the SEC spin column filtrate (FLJ41991-derived protein; compound 25 μM, protein 10 μM): 732296
- spectrum intensity of the compound in the SEC spin column filtrate (FLJ41991-derived protein; compound 25 μM, protein 25 μM): 2056843
- spectrum intensity of the compound in the SEC spin column filtrate (FLJ41991-derived protein; compound 62.5 μM, protein 0 μM): 27212
- spectrum intensity of the compound in the SEC spin column filtrate (FLJ41991-derived protein; compound 62.5 μM, protein 5 μM): 361364
- spectrum intensity of the compound in the SEC spin column filtrate (FLJ41991-derived protein; [4]): 2309029
- spectrum intensity of the compound in the SEC spin column filtrate (FLJ41991-derived protein; [5]): 5171023
- interaction judged from spectrum intensity of the compound in the SEC spin column filtrate (protein fraction eluted from SEC) (FLJ41991-derived protein; [6]): concentration-dependent interaction
Structure (SMILES): COc1ccc(CCN2CCC(Nc3nc4ccccc4n3Cc3ccc(F)cc3)CC2)cc1 [astemizole]
- FLJ No of the derived protein with which the compound was judged to exhibit a concentration-dependent interaction [1]: FLJ38897; also recorded: FLJ41991

- spectrum intensity of the compound in the SEC spin column filtrate (FLJ40298-derived protein; compound 12.5 μM, protein 0 μM): 202235
- spectrum intensity of the compound in the SEC spin column filtrate (FLJ40298-derived protein; compound 12.5 μM, protein 5 μM): 285949
- spectrum intensity of the compound in the SEC spin column filtrate (FLJ40298-derived protein; [2]): 263958
- spectrum intensity of the compound in the SEC spin column filtrate (FLJ40298-derived protein; [3]): 299357
- spectrum intensity of the compound in the SEC spin column filtrate (FLJ40298-derived protein; compound 25 μM, protein 0 μM): 557220
- spectrum intensity of the compound in the SEC spin column filtrate (FLJ40298-derived protein; compound 25 μM, protein 5 μM): 1519215
- spectrum intensity of the compound in the SEC spin column filtrate (FLJ40298-derived protein; compound 25 μM, protein 10 μM): 552560
- spectrum intensity of the compound in the SEC spin column filtrate (FLJ40298-derived protein; compound 25 μM, protein 25 μM): 583103
- spectrum intensity of the compound in the SEC spin column filtrate (FLJ40298-derived protein; compound 62.5 μM, protein 0 μM): 815144
- spectrum intensity of the compound in the SEC spin column filtrate (FLJ40298-derived protein; compound 62.5 μM, protein 5 μM): 225597
- spectrum intensity of the compound in the SEC spin column filtrate (FLJ40298-derived protein; [4]): 1509221
- spectrum intensity of the compound in the SEC spin column filtrate (FLJ40298-derived protein; [5]): 2027848
- interaction judged from spectrum intensity of the compound in the SEC spin column filtrate (protein fraction eluted from SEC) (FLJ40298-derived protein; [6]): concentration-dependent interaction
Structure (SMILES): CCCCOc1cc(C(=O)OCCN(CC)CC)ccc1N [benoxinate]
- FLJ No of the derived protein with which the compound was judged to exhibit a concentration-dependent interaction [1]: FLJ40298

Structure (SMILES): CC(=O)O[C@H]1C[C@@H]2CC[C@@H]3[C@H](CC[C@@]4(C)[C@H]3C[C@H]([N+]3(C)CCCCC3)[C@@H]4OC(C)=O)[C@@]2(C)C[C@@H]1[N+]1(C)CCCCC1 [pancuronium bromide]
- spectrum intensity of the compound in the SEC spin column filtrate (FLJ12857-derived protein; compound 12.5 μM, protein 0 μM): 50699
- spectrum intensity of the compound in the SEC spin column filtrate (FLJ12857-derived protein; compound 12.5 μM, protein 5 μM): 65210
- spectrum intensity of the compound in the SEC spin column filtrate (FLJ12857-derived protein; [2]): 163033
- spectrum intensity of the compound in the SEC spin column filtrate (FLJ12857-derived protein; [3]): 193021
- spectrum intensity of the compound in the SEC spin column filtrate (FLJ12857-derived protein; compound 25 μM, protein 0 μM): 170740
- spectrum intensity of the compound in the SEC spin column filtrate (FLJ12857-derived protein; compound 25 μM, protein 5 μM): 491313
- spectrum intensity of the compound in the SEC spin column filtrate (FLJ12857-derived protein; compound 25 μM, protein 10 μM): 747644
- spectrum intensity of the compound in the SEC spin column filtrate (FLJ12857-derived protein; compound 25 μM, protein 25 μM): 725722
- spectrum intensity of the compound in the SEC spin column filtrate (FLJ12857-derived protein; compound 62.5 μM, protein 0 μM): 1417386
- spectrum intensity of the compound in the SEC spin column filtrate (FLJ12857-derived protein; compound 62.5 μM, protein 5 μM): 1918601
- spectrum intensity of the compound in the SEC spin column filtrate (FLJ12857-derived protein; [4]): 2231237
- spectrum intensity of the compound in the SEC spin column filtrate (FLJ12857-derived protein; [5]): 2511342
- interaction judged from spectrum intensity of the compound in the SEC spin column filtrate (protein fraction eluted from SEC) (FLJ12857-derived protein; [6]): concentration-dependent interaction
- FLJ No of the derived protein with which the compound was judged to exhibit a concentration-dependent interaction [1]: FLJ12857
